Like-named read-outs stand apart in the source and are kept apart here.
Legend:
CD8+ T cells [1] = settings: cited from earlier work
CD8+ T cells [2] = test: Meta-analysis of published SARS-CoV-2 CD8 T cell epitope data curated in the IEDB (25 studies); assay type: cell-based, human
[3] = T cell type (CD4 or CD8) recognizing the SARS-CoV-2 epitope
[4] = SARS-CoV-2-derived CD8 epitopes, dominant = recognized by 3 or more donors/different studies
[5] = SARS-CoV-2 Ag S, T cell type recognizing the epitope
[6] = SARS-CoV-2 Ag S, CD8 epitopes, dominant = recognized by 3 or more donors/different studies
[7] = CD8 epitopes, Yes = recognized by 3 or more donors/different studies
[8] = CD8S (D) Megapool, antigen S, dominant = recognized in 3 or more donors/studies
[9] = CD8-restricted SARS-CoV-2 epitopes, Yes = recognized by 3 or more donors/different studies

Substance: 1067 (KQFDTYNLW) [compound 1067]
- Restriction (CD8+ T cells [1]; [3]): CD8
- Dominant (CD8+ T cells [2]; [4]): Yes (more dominant epitopes are defined by being recognized by 3 or more donors/different studies)

Substance: 1053 (TYACWHHSI) [compound 1053]
- Restriction (CD8+ T cells [1]; [3]): CD8
- Dominant (CD8+ T cells [2]; [4]): Yes (more dominant epitopes are defined by being recognized by 3 or more donors/different studies)

Substance: 1026 (VVYRGTTTY) [compound 1026]
- Restriction (CD8+ T cells [1]; [3]): CD8
- Dominant (CD8+ T cells [2]; [4]): Yes (more dominant epitopes are defined by being recognized by 3 or more donors/different studies)

Substance: 1431 (VVFLHVTYV) [compound 1431]
- Restriction (CD8+ T cells [1]; [5]): CD8
- Dominant (CD8+ T cells [2]; [6]): Yes (more dominant epitopes are defined by being recognized by 3 or more donors/different studies)

Substance: 1041 (VYIGDPAQL) [compound 1041]
- Restriction (CD8+ T cells [1]; [3]): CD8
- Dominant (CD8+ T cells [2]; [4]): Yes (more dominant epitopes are defined by being recognized by 3 or more donors/different studies)

Substance: 1303 (NYNYLYRLF) [compound 1303]
- Restriction (CD8+ T cells [1]; [5]): CD8
- Dominant (CD8+ T cells [2]; [6]): Yes (more dominant epitopes are defined by being recognized by 3 or more donors/different studies)

Substance: 1396 (TQNVLYENQK) [compound 1396]
- Restriction (CD8+ T cells [1]; [5]): CD8
- Dominant (CD8+ T cells [2]; [6]): Yes (more dominant epitopes are defined by being recognized by 3 or more donors/different studies)

Substance: 903 (FTYASALWEI) [compound 903]
- Restriction (CD8+ T cells [1]; [3]): CD8
- Dominant (CD8+ T cells [2]; [4]): Yes (more dominant epitopes are defined by being recognized by 3 or more donors/different studies)

Substance: 961 (ISDYDYYRY) [compound 961]
- Restriction (CD8+ T cells [1]; [3]): CD8
- Dominant (CD8+ T cells [2]; [4]): Yes (more dominant epitopes are defined by being recognized by 3 or more donors/different studies)

Substance: 1386 (LTDEMIAQY) [compound 1386]
- Restriction (CD8+ T cells [1]; [5]): CD8
- Dominant (CD8+ T cells [2]; [6]): Yes (more dominant epitopes are defined by being recognized by 3 or more donors/different studies)

Substance: 1020 (LVLSVNPYV) [compound 1020]
- Restriction (CD8+ T cells [1]; [3]): CD8
- Dominant (CD8+ T cells [2]; [4]): Yes (more dominant epitopes are defined by being recognized by 3 or more donors/different studies)

Substance: 1057 (ALLADKFPV) [compound 1057]
- Restriction (CD8+ T cells [1]; [3]): CD8
- Dominant (CD8+ T cells [2]; [4]): Yes (more dominant epitopes are defined by being recognized by 3 or more donors/different studies)

Substance: 930 (YTMADLVYAL) [compound 930]
- Restriction (CD8+ T cells [1]; [3]): CD8
- Dominant (CD8+ T cells [2]; [4]): Yes (more dominant epitopes are defined by being recognized by 3 or more donors/different studies)

Substance: 913 (YTELEPPCRF) [compound 913]
- Restriction (CD8+ T cells [1]; [3]): CD8
- Dominant (CD8+ T cells [2]; [4]): Yes (more dominant epitopes are defined by being recognized by 3 or more donors/different studies)

Substance: 910 (CTDDNALAYY) [compound 910]
- Restriction (CD8+ T cells [1]; [3]): CD8
- Dominant (CD8+ T cells [2]; [4]): Yes (more dominant epitopes are defined by being recognized by 3 or more donors/different studies)

Substance: 1365 (STECSNLLLQY) [compound 1365]
- Restriction (CD8+ T cells [1]; [5]): CD8
- Dominant (CD8+ T cells [2]; [6]): Yes (more dominant epitopes are defined by being recognized by 3 or more donors/different studies)

Substance: 1352 (SIIAYTMSL) [compound 1352]
- Restriction (CD8+ T cells [1]; [5]): CD8
- Dominant (CD8+ T cells [2]; [6]): Yes (more dominant epitopes are defined by being recognized by 3 or more donors/different studies)

Substance: 772 (QLMCQPILLL) [compound 772]
- Dominant (CD8+ T cells [2]; [4]): Yes (more dominant epitopes are defined by being recognized by 3 or more donors/different studies)

Substance: 437 (NRFLYIIKL) [compound 437]
- Dominant (CD8+ T cells [2]; [7]): Yes (more dominant epitopes are defined by being recognized by 3 or more donors/different studies)

Substance: 1470 (STQDLFLPFF) [compound 1470]
- Dominant (CD8+ T cells [2]; [8]): Yes (more dominant epitopes are defined by being recognized by 3 or more donors/different studies)

Substance: 1133 (VYFLQSINF) [compound 1133]
- Dominant (CD8+ T cells [2]; [9]): Yes (more dominant epitopes are defined by being recognized by 3 or more donors/different studies)

Substance: 457 (SMWSFNPET) [compound 457]
- Dominant (CD8+ T cells [2]; [7]): Yes (more dominant epitopes are defined by being recognized by 3 or more donors/different studies)

Substance: 1502 (LLFNKVTLA) [compound 1502]
- Dominant (CD8+ T cells [2]; [8]): Yes (more dominant epitopes are defined by being recognized by 3 or more donors/different studies)

Substance: 1266 (YLQPRTFLL) [compound 1266]
- Dominant (CD8+ T cells [2]; [9]): Yes (more dominant epitopes are defined by being recognized by 3 or more donors/different studies)

Substance: 1140 (LLYDANYFL) [compound 1140]
- Dominant (CD8+ T cells [2]; [9]): Yes (more dominant epitopes are defined by being recognized by 3 or more donors/different studies)

Substance: 1107 (FVRATATIPI) [compound 1107]
- Dominant (CD8+ T cells [2]; [9]): Yes (more dominant epitopes are defined by being recognized by 3 or more donors/different studies)

Substance: 497 (YYRRATRRIR) [compound 497]
- Dominant (CD8+ T cells [2]; [7]): Yes (more dominant epitopes are defined by being recognized by 3 or more donors/different studies)

Substance: 1512 (HLMSFPQSA) [compound 1512]
- Dominant (CD8+ T cells [2]; [8]): Yes (more dominant epitopes are defined by being recognized by 3 or more donors/different studies)

Substance: 747 (ILFTRFFYV) [compound 747]
- Dominant (CD8+ T cells [2]; [4]): Yes (more dominant epitopes are defined by being recognized by 3 or more donors/different studies)

Substance: 1291 (KCYGVSPTK) [compound 1291]
- Dominant (CD8+ T cells [2]; [9]): Yes (more dominant epitopes are defined by being recognized by 3 or more donors/different studies)

Substance: 872 (FLLPSLATV) [compound 872]
- Dominant (CD8+ T cells [2]; [4]): Yes (more dominant epitopes are defined by being recognized by 3 or more donors/different studies)

Substance: 852 (VRIQPGQTF) [compound 852]
- Dominant (CD8+ T cells [2]; [4]): Yes (more dominant epitopes are defined by being recognized by 3 or more donors/different studies)

Substance: 1495 (SVASQSIIAY) [compound 1495]
- Dominant (CD8+ T cells [2]; [8]): Yes (more dominant epitopes are defined by being recognized by 3 or more donors/different studies)

Substance: 1152 (YYQLYSTQL) [compound 1152]
- Dominant (CD8+ T cells [2]; [9]): Yes (more dominant epitopes are defined by being recognized by 3 or more donors/different studies)

Substance: 1479 (LLALHRSYL) [compound 1479]
- Dominant (CD8+ T cells [2]; [8]): Yes (more dominant epitopes are defined by being recognized by 3 or more donors/different studies)

Substance: 851 (TPKYKFVRI) [compound 851]
- Dominant (CD8+ T cells [2]; [4]): Yes (more dominant epitopes are defined by being recognized by 3 or more donors/different studies)

Substance: 429 (LQFAYANRNRFLY) [compound 429]
- Dominant (CD8+ T cells [2]; [7]): Yes (more dominant epitopes are defined by being recognized by 3 or more donors/different studies)

Substance: 425 (GTITVEELK) [compound 425]
- Dominant (CD8+ T cells [2]; [7]): Yes (more dominant epitopes are defined by being recognized by 3 or more donors/different studies)

Substance: 858 (GTDLEGNFY) [compound 858]
- Dominant (CD8+ T cells [2]; [4]): Yes (more dominant epitopes are defined by being recognized by 3 or more donors/different studies)

Substance: 1174 (RARSVSPKL) [compound 1174]
- Dominant (CD8+ T cells [2]; [9]): Yes (more dominant epitopes are defined by being recognized by 3 or more donors/different studies)

Substance: 499 (KMKDLSPRW) [compound 499]
- Dominant (CD8+ T cells [2]; [7]): Yes (more dominant epitopes are defined by being recognized by 3 or more donors/different studies)

Substance: 477 (ASQRVAGDSGFAAY) [compound 477]
- Dominant (CD8+ T cells [2]; [7]): Yes (more dominant epitopes are defined by being recognized by 3 or more donors/different studies)

Substance: 1493 (IGAEHVNNSY) [compound 1493]
- Dominant (CD8+ T cells [2]; [8]): Yes (more dominant epitopes are defined by being recognized by 3 or more donors/different studies)

Substance: 1176 (KLFIRQEEV) [compound 1176]
- Dominant (CD8+ T cells [2]; [9]): Yes (more dominant epitopes are defined by being recognized by 3 or more donors/different studies)

Substance: 475 (ATSRTLSYYK) [compound 475]
- Dominant (CD8+ T cells [2]; [7]): Yes (more dominant epitopes are defined by being recognized by 3 or more donors/different studies)

Substance: 467 (HLRIAGHHLGR) [compound 467]
- Dominant (CD8+ T cells [2]; [7]): Yes (more dominant epitopes are defined by being recognized by 3 or more donors/different studies)

Substance: 1287 (CVADYSVLY) [compound 1287]
- Dominant (CD8+ T cells [2]; [9]): Yes (more dominant epitopes are defined by being recognized by 3 or more donors/different studies)

Substance: 1238 (SSANNCTFEY) [compound 1238]
- Dominant (CD8+ T cells [2]; [9]): Yes (more dominant epitopes are defined by being recognized by 3 or more donors/different studies)

Substance: 492 (KFPRGQGVPI) [compound 492]
- Dominant (CD8+ T cells [2]; [7]): Yes (more dominant epitopes are defined by being recognized by 3 or more donors/different studies)

Substance: 887 (TLGVYDYLVST) [compound 887]
- Dominant (CD8+ T cells [2]; [4]): Yes (more dominant epitopes are defined by being recognized by 3 or more donors/different studies)

Substance: 1497 (SIIAYTMSL) [compound 1497]
- Dominant (CD8+ T cells [2]; [8]): Yes (more dominant epitopes are defined by being recognized by 3 or more donors/different studies)

Substance: 1476 (FVFKNIDGY) [compound 1476]
- Dominant (CD8+ T cells [2]; [8]): Yes (more dominant epitopes are defined by being recognized by 3 or more donors/different studies)

Substance: 476 (ATSRTLSYY) [compound 476]
- Dominant (CD8+ T cells [2]; [7]): Yes (more dominant epitopes are defined by being recognized by 3 or more donors/different studies)

Substance: 1105 (RIFTIGTVTLK) [compound 1105]
- Dominant (CD8+ T cells [2]; [9]): Yes (more dominant epitopes are defined by being recognized by 3 or more donors/different studies)

Substance: 1259 (WTAGAAAYY) [compound 1259]
- Dominant (CD8+ T cells [2]; [9]): Yes (more dominant epitopes are defined by being recognized by 3 or more donors/different studies)

Substance: 1486 (KLPDDFTGCV) [compound 1486]
- Dominant (CD8+ T cells [2]; [8]): Yes (more dominant epitopes are defined by being recognized by 3 or more donors/different studies)

Substance: 737 (SLDTYPSLETI) [compound 737]
- Dominant (CD8+ T cells [2]; [4]): Yes (more dominant epitopes are defined by being recognized by 3 or more donors/different studies)

Substance: 1117 (ITLKKRWQLAL) [compound 1117]
- Dominant (CD8+ T cells [2]; [9]): Yes (more dominant epitopes are defined by being recognized by 3 or more donors/different studies)

Substance: 426 (KLLEQWNLV) [compound 426]
- Dominant (CD8+ T cells [2]; [7]): Yes (more dominant epitopes are defined by being recognized by 3 or more donors/different studies)
